ChEMBL document CHEMBL6092126, “Inhibitors of Rickettsia prowazekii methionine aminopeptidase 1 identified from the Pandemic Response Box” (Bioorg Med Chem Lett, 2024)

Tests used:
[1] = Inhibition of Rickettsia prowazekii methionine aminopeptidase 1 using methionine-aminomethylcoumarin as substrate at 10 uM preincubated for 1 hrs followed by substrate addition and measured after 30 mins by fluorescence based plate reader analysis relative to control; conditions: time 1.5 hrs
[2] = Inhibition of Rickettsia prowazekii methionine aminopeptidase 1 using methionine-aminomethylcoumarin as substrate preincubated for 1 hrs followed by substrate addition and measured after 30 mins by fluorescence based plate reader analysis

| SMILES | inhibition [1] | IC50 [2] |
| --- | --- | --- |
| O=C(CP(=O)(O)O)NCCc1cccc(Oc2ccccc2)c1 | > 60% | 7 µM |
| O=C(NCc1ccc(F)cc1)c1c(O)c2ncccc2[nH]c1=O | > 60% | 1.9 µM |
| COc1ccc(C)cc1NC(=O)c1ccc(S(=O)(=O)N2CCCCC2)cc1 | > 60% | 2.4 µM |
| C[C@@H](c1nc(-c2ccc(C#N)cc2)cs1)[C@](O)(Cn1cncn1)c1ccc(F)cc1F [RAVUCONAZOLE] | > 60% | 5.2 µM |
| Oc1cccc(C(Nc2nccs2)c2ccc3cccnc3c2O)c1 (centres undefined) | > 60% | 1.4 µM |
| Nc1nc(=O)[nH]cc1F [FLUCYTOSINE] | > 60% | 6.9 µM |
| O=C(O)c1ccc(-c2ccccc2Cl)o1 |  | 2.4 µM |
| Cc1cc(-c2ccccc2)c(C(=O)C(=O)Nc2ccc(N3CCN(c4ncc(F)cn4)CC3)cc2)n1C [OLOROFIM] | > 60% | 4.2 µM |
| O=[N+]([O-])/C(Br)=C/c1ccc(Br)o1 | > 60% | 2.9 µM |
| O=c1cc(Nc2ccc3ccccc3c2)[nH]c(=O)[nH]1 | > 60% | 1.8 µM |
| CCCCCCC1c2ccc(O)cc2Oc2cc(O)ccc21 | > 60% | 10 µM |
| CN(O)C(=O)c1cc2c(CN3CCC[C@H]3C(N)=O)cn(Cc3ccc(F)cc3)c2cn1 | > 60% | 4.2 µM |
| O=C1c2cccc3cccc(c23)C(=O)N1CC1CO1 (centres undefined) | > 60% | 4.8 µM |
| O=C(O)c1ccc(-n2nc(-c3ccccc3O)nc2-c2ccccc2O)cc1 [DEFERASIROX] | > 60% | 2.1 µM |
| Fc1ccc(-n2cc(Cn3c(-c4cccc(F)c4)nc4ccccc43)nn2)cc1 | > 60% | 4.1 µM |
| O=C(Nc1nnc(-c2ccc(Cl)cc2)o1)c1nc2ccccc2s1 | > 60% | 5.5 µM |
| CONC(=N)c1ccc(-c2ccc(-c3ccc(C(=N)NOC)cc3)o2)cc1 [PAFURAMIDINE] | > 60% | 2.9 µM |
| Cc1ccc(Oc2ccccc2-c2csc(N=C3NCCCN3)n2)c(C)c1 [ABAFUNGIN] | > 60% | 5.4 µM |
| COc1cc(Cc2cnc(N)nc2N)cc(OC)c1OC [TRIMETHOPRIM] | > 60% | 5.1 µM |
| CN(C)CCCNC(=O)c1ccc(-c2cc(O)c3ncccc3c2)cc1 | > 60% | 0.34 µM |
